Reference: US20130071854A1, “METHODS FOR THE IDENTIFICATION AND CHARACTERIZATION OF HDAC INTERACTING COMPOUNDS” (priority 2009, published 2013)
Read-outs that look alike come from different tables or passages of the source.

How the values were obtained:
MIER3 = assay: Chemoproteomic binding profiling, K562 cell extract, SAHA/ITF2357 probe matrix (Kd app), ELSA (ELM-SANT) domain protein; parameters: species or system human; conditions: ELSA (ELM-SANT) domain proteins
RERE = assay: as above; parameters: species or system human; conditions: protein RERE; ELSA (ELM-SANT) domain proteins
CoREST complex = assay: Chemoproteomic binding profiling, K562 cell extract, SAHA/ITF2357 probe matrix (Kd app); parameters: species or system human
NuRD complex = assay: as above; parameters: species or system human
[1] = molecular target: T1, non-HDAC targets (e.g. BZW2, ISOC2, aldehyde dehydrogenases) (Homo sapiens, UniProt Q96AB3); assay: as above; conditions: protein ISOC2; selected HDACi off-targets
T1 construct: endogenous in cells; host or cells: K562 whole cell extract
T1 sequence (Q96AB3 1-205): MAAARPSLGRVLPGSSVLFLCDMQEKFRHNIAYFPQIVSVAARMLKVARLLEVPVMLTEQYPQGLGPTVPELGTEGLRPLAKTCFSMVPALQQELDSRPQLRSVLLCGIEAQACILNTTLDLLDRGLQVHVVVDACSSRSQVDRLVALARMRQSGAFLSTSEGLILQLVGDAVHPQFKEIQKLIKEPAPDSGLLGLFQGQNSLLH

[2] = molecular target: T2, non-HDAC targets (e.g. BZW2, ISOC2, aldehyde dehydrogenases) (Homo sapiens, UniProt P16152); assay: as above; conditions: protein CBR1; selected HDACi off-targets
T2 construct: Kd^app CBR1; other: protein CBR1; selected HDACi off-targets
T2 sequence (P16152 1-277): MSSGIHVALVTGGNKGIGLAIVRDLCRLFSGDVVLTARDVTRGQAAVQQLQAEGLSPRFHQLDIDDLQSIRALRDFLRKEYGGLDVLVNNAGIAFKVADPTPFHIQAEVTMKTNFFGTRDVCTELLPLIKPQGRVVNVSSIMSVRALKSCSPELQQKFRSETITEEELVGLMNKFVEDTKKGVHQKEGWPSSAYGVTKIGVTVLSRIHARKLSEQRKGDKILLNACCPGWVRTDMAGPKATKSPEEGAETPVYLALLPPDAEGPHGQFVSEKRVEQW

[3] = molecular target: T3, non-HDAC targets (e.g. BZW2, ISOC2, aldehyde dehydrogenases) (Homo sapiens, UniProt Q9Y6E2); assay: as above; conditions: protein BZW2; selected HDACi off-targets
T3 construct: endogenous in cells; host or cells: K562 whole cell extract
T3 sequence (Q9Y6E2 1-419): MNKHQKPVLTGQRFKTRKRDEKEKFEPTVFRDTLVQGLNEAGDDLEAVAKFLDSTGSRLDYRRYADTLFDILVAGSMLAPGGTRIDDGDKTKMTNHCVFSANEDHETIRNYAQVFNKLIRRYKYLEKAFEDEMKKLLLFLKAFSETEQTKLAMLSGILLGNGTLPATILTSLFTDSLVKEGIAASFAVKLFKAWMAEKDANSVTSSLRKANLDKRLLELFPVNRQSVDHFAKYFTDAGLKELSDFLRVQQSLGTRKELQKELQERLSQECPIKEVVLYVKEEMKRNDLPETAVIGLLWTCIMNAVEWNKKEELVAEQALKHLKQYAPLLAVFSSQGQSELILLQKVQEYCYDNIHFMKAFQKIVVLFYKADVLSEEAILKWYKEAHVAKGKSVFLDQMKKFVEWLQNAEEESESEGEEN

[4] = molecular target: T4, non-HDAC targets (e.g. BZW2, ISOC2, aldehyde dehydrogenases) (Homo sapiens, UniProt O94788); assay: as above; conditions: protein ALDH1A2; selected HDACi off-targets
T4 construct: endogenous in cells; host or cells: K562 whole cell extract
T4 sequence (O94788 1-518): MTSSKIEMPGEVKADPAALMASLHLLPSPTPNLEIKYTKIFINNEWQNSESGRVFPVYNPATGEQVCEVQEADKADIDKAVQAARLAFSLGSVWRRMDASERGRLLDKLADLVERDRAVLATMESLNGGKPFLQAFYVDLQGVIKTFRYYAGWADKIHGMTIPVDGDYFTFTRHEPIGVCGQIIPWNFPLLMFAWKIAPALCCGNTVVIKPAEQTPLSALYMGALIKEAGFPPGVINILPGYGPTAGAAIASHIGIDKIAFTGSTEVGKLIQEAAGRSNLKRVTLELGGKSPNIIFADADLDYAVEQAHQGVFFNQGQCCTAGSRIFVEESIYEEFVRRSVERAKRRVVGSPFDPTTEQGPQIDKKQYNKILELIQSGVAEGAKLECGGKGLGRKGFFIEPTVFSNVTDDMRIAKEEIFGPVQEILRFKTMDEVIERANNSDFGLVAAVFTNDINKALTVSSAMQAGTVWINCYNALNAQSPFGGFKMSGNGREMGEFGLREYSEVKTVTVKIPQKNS

[5] = molecular target: T5, non-HDAC targets (e.g. BZW2, ISOC2, aldehyde dehydrogenases) (Homo sapiens, UniProt Q08209); assay: as above; conditions: protein PPP3CA; selected HDACi off-targets
T5 construct: Kd^app PPP3CA; other: protein PPP3CA; selected HDACi off-targets

MIER2 = assay: Chemoproteomic binding profiling, K562 cell extract, SAHA/ITF2357 probe matrix (Kd app), ELSA (ELM-SANT) domain protein; parameters: species or system human; conditions: ELSA (ELM-SANT) domain proteins
HDAC10 = molecular target: T6, HDAC10 (Homo sapiens, UniProt Q969S8); assay: Chemoproteomic binding profiling, K562 cell extract, SAHA/ITF2357 probe matrix (Kd app); conditions: protein HDAC10; class II HDAC; read-out: Kd^app HDAC10
T6 construct: used to probe endogenous HDACs in K562 whole cell extracts; endogenous in cells
T6 sequence (Q969S8 1-669): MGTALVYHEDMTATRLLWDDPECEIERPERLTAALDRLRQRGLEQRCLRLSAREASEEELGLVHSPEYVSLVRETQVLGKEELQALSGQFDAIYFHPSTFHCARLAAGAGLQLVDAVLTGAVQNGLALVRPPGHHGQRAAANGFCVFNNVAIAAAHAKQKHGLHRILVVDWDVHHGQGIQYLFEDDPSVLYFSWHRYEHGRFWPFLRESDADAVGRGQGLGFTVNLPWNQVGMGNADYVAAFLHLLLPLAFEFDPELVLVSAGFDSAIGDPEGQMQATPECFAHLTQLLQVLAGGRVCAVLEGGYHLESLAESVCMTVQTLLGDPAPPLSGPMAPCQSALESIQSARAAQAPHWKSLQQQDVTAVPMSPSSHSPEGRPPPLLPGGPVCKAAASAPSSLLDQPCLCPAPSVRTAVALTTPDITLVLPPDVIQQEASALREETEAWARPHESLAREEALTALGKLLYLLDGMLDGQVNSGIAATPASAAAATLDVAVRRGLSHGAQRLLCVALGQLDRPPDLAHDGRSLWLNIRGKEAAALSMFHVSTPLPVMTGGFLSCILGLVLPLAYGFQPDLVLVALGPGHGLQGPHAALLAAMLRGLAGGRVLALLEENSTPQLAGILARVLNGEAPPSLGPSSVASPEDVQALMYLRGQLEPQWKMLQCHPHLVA

MIER1 = assay: Chemoproteomic binding profiling, K562 cell extract, SAHA/ITF2357 probe matrix (Kd app), ELSA (ELM-SANT) domain protein; parameters: species or system human; conditions: ELSA (ELM-SANT) domain proteins
EHMT2 = assay: Chemoproteomic binding profiling, K562 cell extract, SAHA/ITF2357 probe matrix (Kd app), ELSA (ELM-SANT) domain proteins group; parameters: species or system human; conditions: protein EHMT2
[6] = test system: acetylated histones H3 and H4; assay: Cell-based histone acetylation assay (immunofluorescence, western blotting); parameters: species or system human; conditions: K562 and HeLa cells
acetylated tubulin = assay: Cell-based tubulin acetylation assay (immunofluorescence, western blotting); parameters: species or system human; conditions: K562 and HeLa cells; immunofluorescence and western blotting
[7] = protein GSE1, CoREST complex, read-out: Kd^app GSE1
[8] = protein HMG20A, CoREST complex, read-out: Kd^app HMG20A
[9] = protein HMG20B, CoREST complex, read-out: Kd^app HMG20B
[10] = protein PHF21A, CoREST complex, read-out: Kd^app PHF21A
[11] = protein RCOR1, CoREST complex, read-out: Kd^app RCOR1
[12] = protein RCOR3, CoREST complex, read-out: Kd^app RCOR3
[13] = protein ZMYM2, CoREST complex, read-out: Kd^app ZMYM2
[14] = protein GATAD2A, NuRD complex, read-out: Kd^app GATAD2A
[15] = protein GATAD2B, NuRD complex, read-out: Kd^app GATAD2B
[16] = protein MBD3, NuRD complex, read-out: Kd^app MBD3
[17] = protein MTA1, NuRD complex, read-out: Kd^app MTA1
[18] = protein MTA2, NuRD complex, read-out: Kd^app MTA2
[19] = protein MTA3, NuRD complex, read-out: Kd^app MTA3

Row | Structure (SMILES) | Kd [1] | Kd [2] | Kd [3] | Kd [4] | Kd [5] | Kd (MIER3) | Kd (RERE) | Kd (MIER2) | Kd (MIER1) | Kd (EHMT2) | Kd (CoREST complex; [7]) | Kd (CoREST complex; [8]) | Kd (CoREST complex; [9]) | Kd (CoREST complex; [10]) | Kd (CoREST complex; [11]) | Kd (CoREST complex; [12]) | Kd (CoREST complex; [13]) | Kd (NuRD complex; [14]) | Kd (NuRD complex; [15]) | Kd (NuRD complex; [16]) | other results
1 | Nc1ccccc1NC(=O)c1ccc(CNc2nccc(-c3cccnc3)n2)cc1 [Mocetinostat] | > 271000 nM | 109000 nM | > 271000 nM | 230000 nM | > 271000 nM | 34000 nM | > 271000 nM | 99000 nM | 73000 nM | > 271000 nM |  |  |  |  |  |  |  |  |  |  | Kd (CoREST complex; read-out: Kd^app GSE1): 50000 nM; Kd (CoREST complex; read-out: Kd^app HMG20A): 53000 nM; Kd (CoREST complex; read-out: Kd^app HMG20B): 62000 nM; Kd (CoREST complex; read-out: Kd^app PHF21A): 189000 nM; Kd (CoREST complex; read-out: Kd^app RCOR1): 48000 nM; Kd (CoREST complex; read-out: Kd^app RCOR2): 103000 nM; Kd (CoREST complex; read-out: Kd^app RCOR3): 60000 nM; Kd (CoREST complex; read-out: Kd^app ZMYM2): 124000 nM; Kd (CoREST complex; read-out: Kd^app ZMYM3): 255000 nM; Kd (NuRD complex; read-out: Kd^app CHD4): 170000 nM; Kd (NuRD complex; read-out: Kd^app GATAD2A): 183000 nM; Kd (NuRD complex; read-out: Kd^app GATAD2B): 106000 nM; Kd (NuRD complex; read-out: Kd^app MBD2): 217000 nM; Kd (NuRD complex; read-out: Kd^app MBD3): 119000 nM; Kd (NuRD complex; read-out: Kd^app MTA1): 136000 nM; Kd (NuRD complex; read-out: Kd^app MTA3): 87000 nM; Kd (HDAC10): > 271000 nM
2 | O=C(CCCCCN1C(=O)c2cccc3cccc(c23)C1=O)NO [scriptaid] | 350 nM | > 10000 nM | 4840 nM | 5380 nM | > 10000 nM | 320 nM | 790 nM | 810 nM |  | 1300 nM |  |  |  |  |  |  |  |  |  |  | 
3 | CN(C)Cc1c(C(=O)NCCOc2ccc(C(=O)NO)cc2)oc2ccccc12 [PCI-24781] | > 10000 nM | > 10000 nM | > 10000 nM | > 10000 nM | > 10000 nM | 20 nM | 210 nM |  | 60 nM |  | 20 nM | 20 nM | 30 nM | 50 nM | 20 nM | 20 nM | 20 nM | 60 nM | 70 nM | 40 nM | histone acetylation (in words) [6]: increased steady state acetylation of tubulin and histones; tubulin acetylation (in words) (acetylated tubulin): increased steady state acetylation of tubulin and histones; Kd (CoREST complex; protein RCOR2, CoREST complex, read-out: Kd^app RCOR2): 20 nM; Kd (CoREST complex; protein ZMYM3, CoREST complex, read-out: Kd^app ZMYM3): 40 nM; Kd (NuRD complex; protein CHD4, NuRD complex, read-out: Kd^app CHD4): 160 nM; Kd (NuRD complex; protein MBD2, NuRD complex, read-out: Kd^app MBD2): 170 nM; Kd (NuRD complex; [17]): 50 nM; Kd (NuRD complex; [18]): 60 nM; Kd (NuRD complex; [19]): 50 nM

More lines, main results first:

Row | Kd [1] | Kd [2] | Kd [3] | Kd [4] | Kd [5] | Structure (SMILES) | Kd (MIER3) | Kd (RERE) | Kd (MIER2) | Kd (MIER1) | Kd (EHMT2) | Kd (CoREST complex; [7]) | Kd (CoREST complex; [8]) | Kd (CoREST complex; [9]) | Kd (CoREST complex; [10]) | Kd (CoREST complex; [11]) | Kd (CoREST complex; [12]) | Kd (CoREST complex; [13]) | Kd (NuRD complex; [14]) | Kd (NuRD complex; [15]) | Kd (NuRD complex; [16]) | other results
4 | > 10000 nM | 8230 nM | > 10000 nM | > 10000 nM | 12100 nM | Cc1[nH]c2ccccc2c1CCNCc1ccc(/C=C/C(=O)NO)cc1 [panobinostat] |  |  |  |  |  |  |  |  |  |  |  |  |  |  |  | 
5 | > 10000 nM | 880 nM | 1710 nM | > 10000 nM | 1510 nM | O=C(/C=C/c1ccc(CN(CCO)CCc2c[nH]c3ccccc23)cc1)NO [dacinostat] | 10 nM | > 10000 nM |  | 20 nM |  | 10 nM | 10 nM | 10 nM | 20 nM | 10 nM | 10 nM | 10 nM | 20 nM | 20 nM | 20 nM | Kd (NuRD complex; [17]): 20 nM; Kd (NuRD complex; [18]): 20 nM; Kd (NuRD complex; [19]): 20 nM
